The record followed here is a melting point compilation (Tetko et al.; mined from patent text by program, amines drawn as free bases though some values may be those of a salt).

`Cc1cc(-n2ccnc2)c2cccc(OCc3c(Cl)ccc(S(=O)(=O)N4CCCC4)c3Cl)c2n1` yielded a melting point of 193 °C.
As to `Brc1cccc2c1[nH]c1c2ccc2cc[nH]c21`, the melting point was over 250 °C.
In turn, `N#Cc1ccccc1Sc1ccccc1[N+](=O)[O-]` gave a melting point of 166 to 167 °C.
Take `COC(=O)c1c(C)nc2cc(OC)c(OC)cc2c1-c1ccnc(Cl)c1`: the melting point lay in the range of 145 to 147 °C.
For the compound `O=C(c1ccccc1)c1cc(Cl)ccc1-n1c(Br)nnc1CN1C(=O)c2ccccc2C1=O`, the melting point lay within 202 to 204 °C.
The result for `Cc1cc(-n2cncn2)c2cccc(OCc3c(Cl)ccc(S(=O)(=O)N4CCC[C@H]4C(=O)NCC4CCN(Cc5ccccn5)CC4)c3Cl)c2n1` reads 118 °C.
`CC(=O)SCCC(=O)N1c2ccccc2CCC1C(=O)O` (centres undefined) displayed a melting point of 89 to 91 °C.
Compound `O=C(Nc1ccc(S(=O)(=O)C(F)(F)F)cc1Cl)c1cc(Cl)c2ccccc2c1O` gave a melting point of 234 °C.
As to `CCOC(=O)C1=Cc2cccc(NC(=O)CCCCl)c2OCC1`, the melting point was 98 to 99 °C.
For `O=C(O)/C=C/c1ccc(OCCN2CCCC2)cc1`, the melting point amounted to 183 °C.
`Cc1cccc(NC(=O)NCc2cccc3c2C(=O)N(C2CCC(=O)NC2=O)C3=O)c1` (centres undefined) had a melting point of over 260 °C.
As to `O=Cc1ccc(-c2cc(Br)ccn2)o1`, the melting point lay within 105 to 106 °C.
Compound `CC(=O)Oc1ccc(-c2ccc3oc(C(=O)O)cc3c2)cc1` gave a melting point of 251 to 254 °C.
`CNc1ccc(C(=O)N2CCN(CCc3ccc(SC)cc3)CC2)cc1` had a melting point of 120 to 121 °C.
Compound `CC1CC2=C(CCC(O)C2)C2CCC3(C)C(CO)CCC3C12` (centres undefined) yielded a melting point of 64 to 70 °C.
The result for `CCCCN(Cc1ccc(-c2ccccc2S(=O)(=O)NC(C)(C)C)cc1)C(=O)Cl` reads 128 to 129 °C.
For the compound `O=C(c1cccs1)c1cnn2c(-c3cccc(-c4ccc(CNCCN5CCOCC5)cc4)c3)ccnc12`, the melting point lay in the range of 100 to 106 °C.
In the case of `Cc1c(CO)nc2n1CCc1ccccc1C2=C1CCN(C)CC1`, the melting point is 167 °C.
In the case of `CCN(CC)C(=O)c1ccc(C(=O)N2CCN(c3ncccc3NC(C)C)CC2)nc1` it was 100 to 102 °C; in that of `NC(CO)(CCCc1ccc(Sc2cccc(OCc3ccccc3)c2)cc1Cl)CCP(=O)(O)O` (centres undefined), 193 to 196 °C; in that of `O=C1c2ccccc2C(=O)N1CSc1nnnn1-c1ccccc1`, 146 to 147 °C.
Compound `CSC1=NC(c2cccc([N+](=O)[O-])c2)C2=C(COC2=O)N1` (centres undefined) displayed a melting point of 204 to 206 °C.
Compound `CC(C)c1noc(-c2ncn3c2[C@@H]2CCCN2C(=O)c2c(Cl)cccc2-3)n1` showed a melting point of 187 to 188 °C.
As for `C=CCC1CC(=O)N1C(C(=O)OCOC(=O)C(C)(C)C)=P(c1ccccc1)(c1ccccc1)c1ccccc1` (centres undefined), the melting point lay within 140 to 142 °C.
The compound `O=C(O)COc1ccc(NC(=O)OCc2ccccc2)cc1` showed a melting point of 152 to 154 °C.
For `CN=C(Nc1cc(Cl)cc(Cl)c1)N1CCN(c2ccc(OC(C)=O)cc2OC)CC1`, the melting point worked out at 144 °C.
For the compound `O=C(Cn1c(=O)c(=O)[nH]c2cc(C(F)(F)F)c(-n3cccc3)cc21)NCc1ccccc1`, the melting point was 241 to 242 °C.
`CCC1(CC)O[C@@H](Oc2ccc3c(O)c(NC(=O)C(C)C)c(=O)oc3c2C)[C@H](O)[C@H](OC(=O)C2(C)C=CCN2)[C@H]1OC` (some centres undefined) yielded a melting point of 140 to 142 °C.
`COc1ccc2cc(CBr)ccc2c1Br` registered a melting point of 92 to 94 °C.
Regarding `CN(C)CC1CNc2ccc(Cl)cc2C1` (centres undefined), the melting point lay within 94 to 96 °C.
For the compound `CCCCC(=O)Cc1ccc(C(=O)Nc2ccc3cc(CN4CCCC4)cnc3c2C)cc1`, the melting point was 156 °C.
In turn, `CCON=C(CC)C1=C(O)CC(c2ccc(NC=O)cc2)CC1=O` (centres undefined) yielded a melting point of 111 to 114 °C.
`CC(C)(C)CN1C(=O)[C@@H](CCO)O[C@H](c2ccccc2Cl)c2cc(Cl)ccc21` (relative stereo) registered a melting point of 157 to 159 °C.
`O=c1[nH]c(=O)n(CCO)c2ccccc12` came in with a melting point of 274 °C.
In turn, `COC(=O)C1CCC2C3CCC4CC(O)C(OC)CC4(C)C3C(N)CC12C` (centres undefined) registered a melting point of 177 to 184 °C.
Regarding `N=C(N)c1ccc(-c2ccc(N3CCN(CCC(=O)O)C3=O)cc2)cc1`, the melting point was over 200 °C.
`COc1cc(-c2nc3ccc(OCCN4CCCCC4)cc3n2Cc2ccccc2C(F)(F)F)cc(OC)c1OC` gave a melting point of 167 °C.
Regarding `N#CCCCNC(=O)c1n[nH]cc1NC(=O)c1ccccn1`, the melting point is 231 to 233 °C.
In the case of `Cc1csc2c(CS(=O)c3nc4ccccc4[nH]3)nccc12` (centres undefined) it was 186 to 188 °C; in that of `COc1cc(Nc2c(C#N)cnc3cc(/C=C/CCO)c(OC)cc23)c(Cl)cc1Cl`, 186 to 188 °C.
The compound `N#Cc1cc(C#N)cc(Oc2c(C3CC3)n[nH]c2C2CC2)c1` registered a melting point of 168 to 170 °C.
In turn, `COc1ccc(Cn2c(=O)n([C@H]3CC[C@H](O)CC3)c3ncc(C(F)(F)F)cc32)cc1OC` returned a melting point of 128 to 130 °C.
In the case of `Fc1ccc(CC2CCN(CCOc3ccc4c(c3)=NC(=S)N=4)CC2)cc1` it was 278 to 280 °C.
The result for `Nc1nonc1-c1nc2ccccc2n1COc1ccc(F)cc1` reads 155 to 158 °C; that for `O=C(CCSCCSCCSCCC(=O)Nc1ccc(Nc2ccccc2)cc1)Nc1ccc(Nc2ccccc2)cc1`, 196 to 198 °C.
The result for `CCOC(=O)CCCN(C(=O)CCCN(C(=O)c1ccc(Cl)cc1)c1c(C)cccc1C)c1c(C)cccc1C` reads 95 to 97 °C; that for `Nc1c([N+](=O)[O-])sc2ccc([N+](=O)[O-])cc12`, 288 to 291 °C.
In turn, `Fc1cc(F)cc(Oc2ccc(OCc3ccc(Cl)cc3)c(Cl)c2)c1` displayed a melting point of 95.3 °C.
The result for `CC(C)C(C#N)c1ccc(OCc2ccccc2)c(OCc2ccccc2)c1` (centres undefined) reads 75 to 76 °C; that for `CC(=O)OCCCCC#Cc1ccc2c3ccc4c5c(ccc(c6cccc1c62)c53)C(=O)N(c1c(C(C)C)cccc1C(C)C)C4=O`, over 300 °C.
In the case of `Cc1oc(-c2cccc(C#N)c2)nc1CCl` it was 100 to 101 °C; in that of `Cc1ncn(Cc2ccc(N)cc2C(F)(F)F)c1C`, 185 to 186 °C; in that of `O=C(OCc1ccccc1)c1ccc(OC(=O)c2ccc(O)c(C34CC5CC(CC(C5)C3)C4)c2)cc1`, 164 to 165 °C.
As for `CCN(CC)C(=O)Nc1ccc2oc3c(c2c1)CCCC3`, the melting point is 179 to 180 °C.
In the case of `COc1ccc(C2(Cn3ccn(Cc4ccccc4)c3=O)CC2)cc1OC` it was 110 °C; in that of `COc1ccc2nc(SCc3nccc(OC)c3OC)[nH]c2n1`, 157 °C; in that of `CCCNC(=O)C1Cc2[nH]c3ccc(OC)cc3c2C1` (centres undefined), 141 to 143 °C.
In the case of `CCn1cnc2c(Nc3ccc(C(F)(F)F)cc3)nc(NCCO)nc21` it was 191 to 192 °C; in that of `CCCCn1cc(C(=O)OCC)c(NC(=O)Nc2ccccc2)n1`, 118 to 120 °C.
The result for `CC(C)Oc1cc(N)ccc1-n1cccc1` reads 55 to 57 °C; that for `COC(=O)[C@@H]1C[C@H](OC(=O)c2ccc([N+](=O)[O-])cc2)C[C@H]1C(=O)OCc1ccccc1`, 79.5 °C; that for `CCNC(=O)c1cc([Si](C)(C)C)sc1[Si](C)(C)C`, 106 to 111 °C.
In turn, `CCCNC(=O)Cc1c(-c2ccc(C)s2)nc2sc3ccccc3n12` showed a melting point of 204 to 206 °C.
The result for `Cc1cc(Oc2cccc(C(F)(F)F)c2)nn1C(=O)Nc1cc(OC2CCCC2)c(Cl)cc1F` reads 81 to 83 °C; that for `COn1c(-c2ccccc2)nc2cnc3ccccc3c21`, 194 to 195 °C; that for `CC(C)(C)c1cccc(C[C@@H](NC(=O)c2cccc3c2C=CCCC3)[C@@H](O)c2cccc(Cl)c2)c1` (racemic), 104 to 105 °C.
The compound `COC(=O)C1CCN2C(=O)C(=O)c3cc(Br)cc1c32` (centres undefined) came in with a melting point of 150 to 151 °C.
`N=C1c2nc[nH]c2N(Cc2ccc(Cl)cc2)C2=NCCN12` came in with a melting point of 296 to 299 °C.
Compound `O=C1c2cccc(O)c2C(=O)N1CC(=O)N1c2ccccc2N(Cc2ccccc2)C(=O)[C@H]2CCC[C@H]21` (relative stereo) gave a melting point of 272 °C.
The result for `O=C(O)C12CC(c3ccccc31)c1ccccc12` reads 200 °C; that for `Cc1cc(-c2nc3ccccc3c(=O)[nH]2)cc(C)c1OCCO`, 260 to 261 °C; that for `COc1c(C)ccc(C(C)C)c1CO`, 100 to 101 °C.
Compound `O=C(Nc1cccc2c1C(=O)c1c-2n[nH]c1-c1ccc(N2CCC(N3CCOCC3)CC2)cc1)NN1CCOCC1` registered a melting point of 249 °C.
The compound `COc1ccc(C(=O)Nc2c(Cl)cncc2Cl)c2c3ccccc3n(Cc3ccccc3)c12` yielded a melting point of 215 to 217 °C.
`CC(C)CCCOc1c(-c2ccc(S(C)(=O)=O)cc2)cnn(-c2ccc(F)c(F)c2)c1=O` returned a melting point of 98 to 99 °C.
For the compound `COc1ccc(C(=O)N2CCC(N3CC4(CCN(Cc5ccccc5)CC4)c4ccccc43)c3ccccc32)cc1OC` (centres undefined), the melting point lay within 155 to 157 °C.
The compound `CCN(c1nc(-c2c(F)cccc2OC)c2[nH]ncc2n1)c1ccc(C(F)(F)F)cc1Cl` returned a melting point of 184 to 185 °C.
Compound `O=S1(=O)c2cccc3cccc(c23)N1CCN1CCC(Cc2cnc3ccccc3c2)CC1` had a melting point of 150 °C.
In turn, `O=C(O)c1cn(C2CC2)c2c(C(F)(F)F)c(N3CCC(c4ccccn4)C3)c(F)cc2c1=O` (centres undefined) had a melting point of 210 to 212 °C.
Regarding `CCc1cc([N+](=O)[O-])c(=O)[nH]c1COCc1ccccc1`, the melting point was 157 to 158 °C.
Consider `CS(=O)(=O)c1ccc(C(CC2CCCC2)C(=O)O)cc1Cl` (centres undefined), for which the melting point was 124 to 126 °C.
Take `COc1cc(C=CC(=O)Nc2c(-c3ccccc3C)c3cc(Cl)c(C)cc3oc2=O)cc(OC)c1OC(C)=O`: the melting point lay in the range of 248 to 250 °C.
As to `Cn1c(=O)c2c(ncn2CC(O)Cc2noc(-c3ccccc3)n2)n(C)c1=O` (centres undefined), the melting point is 179 to 180 °C.
The compound `NCC(=O)N(O)Cc1ccccc1` gave a melting point of 142 to 143 °C.

The term melting point denotes the temperature of the solid-liquid transition.
